Tests used:
human V1a receptor = human V1a receptor (Homo sapiens, UniProt P37288); assay: V1a binding assay (3H-AVP displacement, HEK-293 membranes); design: expressed in transfected cells; host or cells: HEK-293 (membranes); details: for inhibition at 1 µM: 1.0 μM compound, read-out: V1a@1.0, % Inh; for inhibition at 0.1 µM: 0.1 μM compound, read-out: V1a % Inh @0.1
How it was run: (§1)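 Each well: membranes, test compound (from 10% DMSO working stock), 3H-AVP. Buffer pH 7.5 with 0.1% BSA and protease inhibitors; 1 h, room temperature. Non-specific binding: 1.25 μM AVP. Filter, wash, count.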

human V2 receptor = human V2 receptor (Homo sapiens, UniProt P30518); assay: V2 binding assay (3H-AVP displacement, HEK-293 membranes); design: expressed in transfected cells; host or cells: HEK-293 (membranes); details: 1.0 μM compound; read-out: V2@1.0, % Inh
Sequence of human V2 receptor (P30518 whole entry): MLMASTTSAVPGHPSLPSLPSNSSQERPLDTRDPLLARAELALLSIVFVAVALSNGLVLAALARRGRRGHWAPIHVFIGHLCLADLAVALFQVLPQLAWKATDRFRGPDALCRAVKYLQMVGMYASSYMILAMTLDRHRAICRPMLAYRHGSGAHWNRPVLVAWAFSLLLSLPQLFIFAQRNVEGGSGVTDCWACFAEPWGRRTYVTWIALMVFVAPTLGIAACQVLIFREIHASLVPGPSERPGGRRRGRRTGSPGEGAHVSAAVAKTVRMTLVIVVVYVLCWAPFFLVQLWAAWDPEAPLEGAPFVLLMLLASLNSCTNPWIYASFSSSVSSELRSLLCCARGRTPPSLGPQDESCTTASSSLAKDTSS
How it was run: as §1

human V1b receptor = target: T1, human V1b receptor (Homo sapiens, UniProt P47901); assay: V1b binding assay (3H-AVP displacement, HEK-293 membranes); design: expressed in transfected cells; host or cells: HEK-293 (membranes); details: 10 μM compound; read-out: V1b % Inh @10
T1 sequence (P47901 1-424): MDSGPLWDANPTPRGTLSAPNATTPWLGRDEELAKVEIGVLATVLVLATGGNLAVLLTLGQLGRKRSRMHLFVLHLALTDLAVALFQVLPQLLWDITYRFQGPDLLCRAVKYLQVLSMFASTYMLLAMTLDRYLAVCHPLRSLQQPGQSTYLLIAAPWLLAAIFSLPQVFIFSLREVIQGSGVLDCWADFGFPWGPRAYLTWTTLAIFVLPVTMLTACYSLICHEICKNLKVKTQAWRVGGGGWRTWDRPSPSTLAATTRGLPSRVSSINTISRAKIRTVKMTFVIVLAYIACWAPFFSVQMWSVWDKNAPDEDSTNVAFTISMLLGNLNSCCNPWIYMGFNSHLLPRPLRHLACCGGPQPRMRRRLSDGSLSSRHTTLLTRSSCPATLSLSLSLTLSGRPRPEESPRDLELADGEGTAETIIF
How it was run: as §1

NPY2 receptors = target: T2, NPY2 receptors (Homo sapiens, UniProt P49146); assay: Neuropeptide Y receptor binding assay (125I-PYY, KAN-TS cell membranes); details: 10 μM compound; read-out: NPY-2@10, % Inh
T2 construct: Cell Membranes from KAN-TS cells having NPY2 receptors; endogenous in cells; host or cells: KAN-TS cells (membranes)
T2 sequence (P49146 1-381): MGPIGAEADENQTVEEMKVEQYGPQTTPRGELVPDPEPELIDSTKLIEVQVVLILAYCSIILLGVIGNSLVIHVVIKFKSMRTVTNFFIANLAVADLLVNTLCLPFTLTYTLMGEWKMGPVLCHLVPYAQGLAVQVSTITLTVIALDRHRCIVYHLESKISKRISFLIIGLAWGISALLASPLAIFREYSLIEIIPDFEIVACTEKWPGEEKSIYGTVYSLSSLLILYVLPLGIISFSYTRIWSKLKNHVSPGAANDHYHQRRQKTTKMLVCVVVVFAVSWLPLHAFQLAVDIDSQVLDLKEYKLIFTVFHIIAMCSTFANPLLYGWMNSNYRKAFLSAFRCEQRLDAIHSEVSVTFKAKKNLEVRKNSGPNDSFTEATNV
Method: Neuropeptide Y Receptor Binding Assay
Load 96-well RIA racks with RIA vials (Sarstedt, cat. #73.1055)
Prepare membranes—use 2×15 cm confluent plates/96-well assay plate
Add 14 mls Homogenization buffer/cell pellet
Homogenize at high speed for 15 seconds
Transfer to 15 ml conical tube and spin 5′ at 4° C. at setting 3 in RT6000 centrifuge
Transfer supernatant to 30 ml Corex tube
Balance and spin 25′ at 15,000 rpm at 4° C.
Resuspend pellet in 10 mls Binding buffer
Homogenize at high speed for 15 sec.
Bring volume up to 50 mls in Binding buffer (25 mls/2×96-well plates)
Keep on ice until use or freeze in aliquots (2 plates/tube) in −70° C.
Prepare ^125I-PYY (for 2×96-well compound plates)
Dilute 50 uCi ^125I-PYY in 1 ml H2O
Add 0.4 ml 10% BSA to 20 ml Binding buffer
Add 150 μl ^125I-PYY, mix well
NSB (1 μM PYY final conc.): 40 μl PYY (100 μM stock)+60 μl 30% DMSO in HEPES=40 μM PYY—add 5 μl/well
Total Binding: Add 5 μl/well of Compound Diluent
Add 5 μl compound (final conc. @10 μM)
Incubate at R.T. for 1 hr.
Spin plates for 10′ at setting 9 in RT6000 centrifuge
Aspirate supernatant from tubes, add 300 μl PBS and aspirate again.
After plates are washed and aspirated, put individual tubes in 12×75 mm polypropylene carrier tubes. Count on gamma counter.

Sequence of human V1a receptor (P37288 whole entry): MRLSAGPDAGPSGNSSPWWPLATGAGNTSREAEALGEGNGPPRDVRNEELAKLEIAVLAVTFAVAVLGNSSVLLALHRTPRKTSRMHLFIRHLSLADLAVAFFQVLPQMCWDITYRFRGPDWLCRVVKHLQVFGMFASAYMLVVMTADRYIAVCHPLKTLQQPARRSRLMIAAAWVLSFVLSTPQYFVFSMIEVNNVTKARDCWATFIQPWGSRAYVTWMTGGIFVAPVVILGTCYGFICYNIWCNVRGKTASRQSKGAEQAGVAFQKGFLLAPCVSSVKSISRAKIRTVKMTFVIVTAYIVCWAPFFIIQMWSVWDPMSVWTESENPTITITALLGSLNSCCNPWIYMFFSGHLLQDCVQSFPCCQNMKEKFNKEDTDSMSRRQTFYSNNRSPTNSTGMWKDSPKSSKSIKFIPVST

Structure (SMILES)	IC50 (human V1a receptor) [nM]	inhibition at 1 µM (human V2 receptor) [%]	inhibition at 10 µM (human V1b receptor) [%]	inhibition at 10 µM (NPY2 receptors) [%]	inhibition at 1 µM (human V1a receptor) [%]	inhibition at 0.1 µM (human V1a receptor) [%]
O=c1[nH]c2ccccc2n1C1CCN(C(=S)NCc2cccnc2)CC1 [Compound 29]	1900	2	0	11	–	–
CC(Cc1ccc(Cl)cc1)NC(=S)N1CCC(n2c(=O)[nH]c3ccccc32)CC1 (stereo not drawn) [Compound 30]	390	9	0	23	–	–
O=c1[nH]c2ccccc2n1C1CCN(C(=S)NCCc2ccc([N+](=O)[O-])cc2)CC1 [Compound 31]	–	15	5	17	19	–
O=c1[nH]c2ccccc2n1C1CCN(C(=S)NC(Cc2ccccc2)c2ccccc2)CC1 (stereo not drawn) [Compound 32]	–	9	4	26	42	–
O=c1[nH]c2ccccc2n1C1CCN(C(=S)NC2c3ccccc3-c3ccccc32)CC1 [Compound 33]	–	0	9	13	33	–
O=c1[nH]c2ccccc2n1C1CCN(C(=S)NC(c2ccccc2)c2ccc(Cl)cc2)CC1 (stereo not drawn) [Compound 34]	–	21	13	22	42	–
CCN(CC)CCn1c(=O)n(C2CCN(C(=S)NC(C)c3ccc(F)cc3)CC2)c2ccccc21 (stereo not drawn) [Compound 36, 1-(N1-Piperidinocarbothioyl-(4-fluoro-[…]-methylbenzylamino)-4-yl)-3-(2-diethyaminoethyl)-1,3-dihydrobenzimidazol-2-one]	–	0	20	16	45	–
O=c1n(Cc2ccccc2)c2ccccc2n1C1CCN(C(=S)NC(c2ccccc2)c2ccccc2)CC1 [Compound 37, 1-(N1-Piperidinocarbothioyldiphenylmethylamino-4-yl)-3-benzyl-1,3-dihydrobenzimidazol benzimidazol-2-one]	–	2	8	0	5	–
O=c1[nH]c2ccccc2n1C1CCN(C(=S)NCCCc2ccccc2)CC1 [Compound 38]	–	9	0	7	25	–
O=c1n(Cc2ccccc2)c2ccccc2n1C1CCN(C(=S)NCCc2ccc(Cl)cc2)CC1 [Compound 39, 1-(N1-Piperidinocarbothioyl-2-(4-chlorophenyl)ethylamino-4-yl)-3-benzyl-1,3-dihydrobenzimidazol-2-one]	–	0	7	18	17	–
COC(=O)C(Cc1ccccc1)NC(=S)N1CCC(n2c(=O)[nH]c3ccccc32)CC1 (stereo not drawn) [Compound 40]	190	0	11	17	–	–
CCN(CC)CCn1c(=O)n(C2CCN(C(=S)NC(Cc3ccccc3)C(=O)O)CC2)c2ccccc21 [Compound 43, 1-(N1-Piperidinocarbothioyl-(2-phenyl-1-L-carboxy)amino-4-yl)-3-(2-diethyaminoethyl)-1,3-dihydrobenzimidazol-2-one]	–	10	16	13	39	–
CC(=O)NCCNC(=O)C(Cc1ccccc1)NC(=S)N1CCC(n2c(=O)[nH]c3ccccc32)CC1 (stereo not drawn) [Compound 44]	–	2	24	9	37	–
CC(C)(C)OC(=O)NCCNC(=O)C(Cc1ccccc1)NC(=S)N1CCC(n2c(=O)[nH]c3ccccc32)CC1 (stereo not drawn) [Compound 46]	–	0	26	16	–	8
NC(=O)C(Cc1ccccc1)NC(=S)N1CCC(n2c(=O)[nH]c3ccccc32)CC1 (stereo not drawn) [Compound 47]	–	14	0	10	45	–
Cc1ccccc1NC(=O)N1CCC(n2c(=O)[nH]c3ccccc32)CC1 [Compound 48]	–	0	3	22	2	–
O=C(Nc1ccccc1-c1ccccc1)N1CCC(n2c(=O)[nH]c3ccccc32)CC1 [Compound 49]	–	0	18	12	63	–
COC(=O)[C@@H](Cc1c[nH]c2ccccc12)NC(=S)N1CCC(n2c(=O)[nH]c3ccccc32)CC1 [Compound 50]	–	0	15	16	8	–
COC(=O)[C@@H](Cc1ccccc1)NC(=S)N1CCC(n2c(=O)[nH]c3ccccc32)CC1 [Compound 51]	–	1	19	2	25	–
O=C1c2ccccc2C(=O)N1CCCn1c(=O)n(C2CCN(C(=S)NC(c3ccccc3)c3ccccc3)CC2)c2ccccc21 [Compound 54, 1-[(N1-Piperidinocarbothioyldiphenylmethylamino)-4-yl]-3-(3-N-phthalimidopropyl)-1,3-dihydrobenzimidazol-2-one]	–	0	18	4	47	–
COC(=O)C(Cc1ccccc1)NC(=S)N1CCC(n2c(=O)n(CCCN3C(=O)c4ccccc4C3=O)c3ccccc32)CC1 (stereo not drawn) [Compound 56]	360	3	19	22	–	–
CCOC(=O)CCn1c(=O)n(C2CCN(C(=S)NC(c3ccccc3)c3ccccc3)CC2)c2ccccc21 [Compound 60, 1-[(N1-Piperidinocarbothioyldiphenylmethylamino)-4-yl]-3-(2-carboethoxyethyl)-1,3-dihydro-benzimidazol-2-one]	–	0	19	35	49	–
O=C(O)CCn1c(=O)n(C2CCN(C(=S)NC(c3ccccc3)c3ccccc3)CC2)c2ccccc21 [Compound 61, 1-[(N1-Piperidinocarbothioyldiphenylmethylamino)-4-yl]-3-(2-carboxyethyl)-1,3-dihydrobenzimidazol-2-one]	–	0	22	90	17	–
COc1ccc(C(NC(=S)N2CCC(n3c(=O)[nH]c4ccccc43)CC2)c2ccc(OC)cc2)cc1 [Compound 66, 1-[(N1-Piperidinocarbothioyl-1,1-di(p-anisyl)methylamino)-4-yl]-1,3-dihydrobenzimidazol-2-one]	–	0	11	21	–	15
